The values that follow come from ChEMBL document CHEMBL5344426, “Imidazolone as an Amide Bioisostere in the Development of β-1,3-N-Acetylglucosaminyltransferase 2 (B3GNT2) Inhibitors” (J Med Chem, 2023).

The target of data set [1] is T1, N-acetyllactosaminide beta-1,3-N-acetylglucosaminyltransferase 2 (Homo sapiens, UniProt Q9NY97).
T1 sequence (Q9NY97 whole entry): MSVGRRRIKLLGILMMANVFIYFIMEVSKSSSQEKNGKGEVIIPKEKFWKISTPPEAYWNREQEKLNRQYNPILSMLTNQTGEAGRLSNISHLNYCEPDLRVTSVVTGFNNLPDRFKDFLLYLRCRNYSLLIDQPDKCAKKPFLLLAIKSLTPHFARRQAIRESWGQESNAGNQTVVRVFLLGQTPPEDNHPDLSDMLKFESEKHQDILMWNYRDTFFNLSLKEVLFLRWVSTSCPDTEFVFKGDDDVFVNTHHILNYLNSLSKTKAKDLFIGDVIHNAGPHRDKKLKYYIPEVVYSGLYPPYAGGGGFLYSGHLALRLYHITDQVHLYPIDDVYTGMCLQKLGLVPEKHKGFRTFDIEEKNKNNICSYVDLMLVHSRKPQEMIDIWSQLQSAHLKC
In words: Inhibition of B3GNT2 (unknown origin) using N-acetyl-lactosamine and UDP-GlcNAc as substrate incubated for 1.5 to 2 hrs by UDP-Glo based analysis. Particulars: read-out: IC50.

The target of data set [2] is N-acetyllactosaminide beta-1,3-N-acetylglucosaminyltransferase 4 (Homo sapiens, UniProt Q9C0J1). Description: Inhibition of B3GNT4 (unknown origin) using Beta-lactose and UDP-GlcNAc as substrate incubated for 1.5 to 2 hrs by UDP-Glo based analysis.
Another data set relates to Jurkat. Description: Antiproliferative activity against human Jurkat cells assessed as inhibition of cell growth incubated for 3 days by SYTOX blue staining based flow cytometry analysis. It is filed as functional. Particulars: 72 h. On the technique in general: A flow cytometer gives signals particle by particle.
Data set [3] can be described thus: Solubility of compound in FeSSIF incubated for 48 to 72 hrs by LC-MS analysis. It is filed as physicochemical. Particulars: time 48-72 hrs.
The nature of data set [4]: Solubility of compound in PBS incubated for 48 to 72 hrs by LC-MS analysis. Particulars: time 48-72 hrs. It is filed as physicochemical.
The nature of data set [5]: Solubility of compound in HCL incubated for 48 to 72 hrs by LC-MS analysis. It is filed as physicochemical. Particulars: time 48-72 hrs.
Data set [6] can be described thus: Microsomal stability in mouse liver microsome assessed as intrinsic clearance at 1 uM incubated for 20 mins in presence of NADPH by LC-MS/MS analysis. Particulars: liver microsomes, read-out: CLH. It is filed as ADME.
Data set [7] in a line: Microsomal stability in rat liver microsome assessed as intrinsic clearance at 1 uM incubated for 20 mins in presence of NADPH by LC-MS/MS analysis. Format: ADME. Particulars: liver microsomes, read-out: CLH. On the technique in general: Liver microsomes are vesicles of endoplasmic reticulum, rich in cytochrome P450 enzymes.
Data set [8] is described as follows: Microsomal stability in human liver microsome assessed as intrinsic clearance at 1 uM incubated for 20 mins in presence of NADPH by LC-MS/MS analysis. Format: ADME. Particulars: liver microsomes, read-out: CLH.
Data set [9] in a line: Permeability of compound across apical to basolateral in MDCK-II cells incubated for 2 hrs by LC-MS/MS analysis. Format: ADME, cell-based, Canis lupus familiaris. Particulars: dog, read-out: permeability.
The nature of data set [10]: Clearance in mouse at 5 mg/kg, po. Format: ADME, organism-based. Particulars: in vivo; for CL: po, 5 mg/kg.
Data set [11] can be described thus: Volume of distribution at steady state in mouse at 5 mg/kg, po. It is filed as ADME, organism-based. Particulars: in vivo.
Data set [12] can be described thus: Half life in mouse at 5 mg/kg, po. Particulars: in vivo; for t1/2: po, 5 mg/kg. It is filed as ADME, organism-based.
The nature of data set [13]: Oral bioavailability in mouse at 5 mg/kg. It is filed as ADME, organism-based. Particulars: in vivo.

Converted amounts (≈) assume the structure as drawn.

Chain of N-acetyllactosaminide beta-1,3-N-acetylglucosaminyltransferase 4 (Q9C0J1 whole entry): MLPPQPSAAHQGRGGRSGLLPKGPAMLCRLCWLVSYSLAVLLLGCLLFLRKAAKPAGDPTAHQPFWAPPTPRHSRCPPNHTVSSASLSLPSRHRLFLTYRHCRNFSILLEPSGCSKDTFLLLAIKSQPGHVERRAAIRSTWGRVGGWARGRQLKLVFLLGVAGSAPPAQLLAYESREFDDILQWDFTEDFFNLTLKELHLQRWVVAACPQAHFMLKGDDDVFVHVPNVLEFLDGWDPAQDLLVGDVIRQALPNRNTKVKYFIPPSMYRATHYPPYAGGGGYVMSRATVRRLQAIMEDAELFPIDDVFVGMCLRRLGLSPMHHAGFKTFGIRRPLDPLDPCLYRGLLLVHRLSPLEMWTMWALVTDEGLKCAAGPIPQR

The term IC50 denotes the concentration that gives 50% inhibition. In general, solubility refers to the dissolved amount per volume that the medium holds. What is called CL/F is clearance divided by bioavailability, as obtained after extravascular dosing. As usually defined, the half-life is the time in which the quantity being followed falls by half. Low values mean fast loss, high ones slow loss. By bioavailability is commonly meant the share of a dose that reaches the circulation, judged against a reference dose that is usually intravenous. Read a low bioavailability as little systemic uptake. For `C[C@H](NC(=O)c1ccc2[nH]c(=O)n([C@H](C)C(C)(C)C)c2c1)c1cnc(C(F)(F)F)nc1`, the IC50 in data set [1] was 70 nM; in [2], greater than 250000 nM; in the data set with Jurkat it was 17200 nM. The figures for the solubility in data set [3], in data set [4] and in data set [5] were 298 µM (≈ 130 µg/mL), 155 µM (≈ 67.5 µg/mL) and 180 µM (≈ 78.4 µg/mL), respectively. Besides, the microsomal CLint at 1 µM in data set [6] was 61 µL/min/mg; in data set [7], 42 µL/min/mg; in [8], 14 µL/min/mg. The Papp A→B at 2 h in data set [9] came to 21 ×10⁻⁶ cm/s. In [10], this compound showed a CL/F of 13.3 mL/min/kg. This compound also showed a Vdss in [11] of 1.8 L/kg. In [12], this compound gave a half-life of 1.9 h. In addition, the bioavailability in [13] is 28%.
Take `C[C@@H](n1c(=O)[nH]c2ccc(C3=NC(=O)[C@](C)(c4cnc(C(F)(F)F)nc4)N3)cc21)C(C)(C)C`: the IC50 in data set [1] was 9 nM; in [2], greater than 250000 nM; in the data set with Jurkat it was 1100 nM. In addition, the results for the solubility in data set [3], in data set [4] and in data set [5] were 485 µM (≈ 223 µg/mL), 154 µM (≈ 70.9 µg/mL) and 329 µM (≈ 151 µg/mL), respectively. Moreover, the values for the microsomal CLint at 1 µM in data set [6], in data set [7] and in [8] were 15 µL/min/mg, 15 µL/min/mg and 14 µL/min/mg, respectively. Also, the Papp A→B at 2 h in [9] was found to be 17 ×10⁻⁶ cm/s. Also, in [10], the CL came out at 5 mL/min/kg. In [11], this compound displayed a Vdss of 2.6 L/kg. For the same compound, the t1/2 in [12] came out at 1.4 h. The compound further came in with a bioavailability in data set [13] of 54%.
As to `C[C@@H](n1c(=O)[nH]c2ccc(C3=NC(=O)[C@](C)(c4ccc(C(F)(F)F)nc4)N3)cc21)C(C)(C)C`, the IC50 in data set [1] came out at 8 nM; in the data set on Jurkat, 2300 nM. Further, the solubility in [3] turned out to be 500 µM (≈ 230 µg/mL); in [4], 66 µM (≈ 30.3 µg/mL); in data set [5], 311 µM (≈ 143 µg/mL). In addition, the microsomal CLint at 1 µM in [6] was found to be 14 µL/min/mg; in data set [7] it was 14 µL/min/mg; in data set [8], 34 µL/min/mg. The Papp A→B at 2 h in data set [9] was determined as 15 ×10⁻⁶ cm/s. Besides, in data set [10], the CL is 5 mL/min/kg. Also, in data set [11], the Vdss was determined as 3.4 L/kg. In addition, in [12], the t1/2 was 1.5 h. This compound yielded a bioavailability in data set [13] of 66%.
